Reference: patent publication US20110110930A1, “Mitogen-Activated Protein Kinase Kinase Kinase 14 (MAP3K14) Polymorphisms As Indicators of Subject Outcome in Critically Ill Subjects” (priority 2007, published 2011)
“Also recorded” adds a separate entry of the source.

Test system: ICU subjects with severe sepsis
Assay: Response to steroids in ICU severe sepsis subjects by MAP3K14 rs7222094 genotype (28-day survival, days alive and free of organ dysfunction)
Assay type: in vivo, human
Settings: for SURV (28-Day Survival): % (N survived); for Delta SURV (28-Day Survival): treat (steroid-treated) minus cont (steroid untreated controls), difference of % survival; for Delta COAG.DAF (Days alive and free of coagulation dysfunction) / Delta CVS.DAF (Days alive and free of cardiovascular dysfunction) / Delta DA (Days alive) / Delta INR.DAF (Days alive and free of international normalized ratio >1.5) / Delta LIVER.DAF (Days alive and free of any type of hepatic dysfunction) / Delta PRESS.DAF (Days alive and free of any vasopressors) / Delta RENAL.DAF (Days alive and free of any type of renal dysfunction) / Delta RENSUP.DAF (Days alive and free of renal support) / Delta RESP.DAF (Days alive and free of respiratory dysfunction) / Delta VENT.DAF (Days alive and free of mechanical ventilators): treat minus cont (steroid untreated controls), difference of medians
Protocol: All subjects admitted to the ICU of St. Paul's Hospital (SPH) were screened for study inclusion. SPH ICU is a mixed medical-surgical ICU in a tertiary care, university-affiliated teaching hospital. Subjects were included in the study if they met at least two out of four SIRS criteria: 1) fever (>38° C.) or hypothermia (<36° C.), 2) tachycardia (>90 beats/minute), 3) tachypnea (>20 breaths/minute), PaCO2<32 mm Hg, or need for mechanical ventilation, and 4) leukocytosis (total leukocyte count>12,000 mm^3) or leukopenia (<4,000 mm^3). Subjects were included in the analysis if they met the diagnostic criteria for septic shock (sepsis and cardiovascular dysfunction (as defined by Brussels scoring system) and one other organ dysfunction) on admission to the ICU. Subjects were excluded if blood could not be obtained for genotype analysis. Baseline characteristics (age, gender, admission APACHE II score (KNAUS W A. et al. Crit. Care Med. (1985) 13:818-829), together with medical vs. surgical diagnosis KNAUS W A. et al. Chest (1991) 100:1619-1636) were recorded on admission to the ICU. The full cohort meeting these criteria included 1072 Caucasian subjects and 153 Asian subjects.
The primary outcome variable evaluated in this study was 28-day mortality. Various organ dysfunctions were considered as secondary outcome variables. Baseline demographics recorded were age, gender, admission APACHE II score (KNAUS W A. et al. Crit. Care Med (1985) 13:818-829), and medical or surgical diagnosis on admission to the ICU (based on the APACHE III diagnostic codes) (KNAUS W A. et al. Chest (1991) 100:1619-1636) (TABLE 2B).
After meeting the inclusion criteria, data were recorded for each 24-hour period (8 am to 8 am) for 28-days after ICU admission or until hospital discharge to evaluate organ dysfunction, the intensity of SIRS (Systemic Inflammatory Response Syndrome) and sepsis. Raw clinical and laboratory variables were recorded using the worst or most abnormal variable for each 24-hour period with the exception of Glasgow Coma Score, for which the best possible score for each 24-hour period was recorded. Missing data on the date of admission was assigned a normal value and missing data after day one was substituted by carrying forward the value from the previous day. When data collection for each patient was complete, all patient identifiers were removed from all records and the patient file was assigned a unique random number linked with the blood samples. The completed raw data file was used to calculate descriptive and severity of illness scores using standard definitions as described below.
Organ dysfunction was first evaluated at baseline and then daily using the Brussels score (SIBBALD W J. and VINCENT J L. Chest (1995) 107(2):522-7) (see TABLE 2A in General Methods Section). If the Brussels score was moderate, severe, or extreme dysfunction then organ dysfunction was recorded as present on that day. To correct for deaths during the observation period, we calculated the days alive and free of organ dysfunction (RUSSELL J A. et al. Crit. Care Med (2000) 28(10):3405-11 and BERNARD G R. et al. Chest (1997) 112(1):164-72) (TABLE 2C). For example, the severity of cardiovascular dysfunction was assessed by measuring days alive and free of cardiovascular dysfunction over a 28-day observation period. Days alive and free of cardiovascular dysfunction was calculated as the number of days after inclusion that a patient was alive and free of cardiovascular dysfunction over 28-days. Thus, a lower score for days alive and free of cardiovascular dysfunction indicates more cardiovascular dysfunction. The reason that days alive and free of cardiovascular dysfunction is preferable to simply presence or absence of cardiovascular dysfunction is that severe sepsis has a high acute mortality so that early death (within 28-days) precludes calculation of the presence or absence of cardiovascular dysfunction in dead subjects. […]

[1] = steroid-treated, rs7222094 TT (N = 74), Table 4.3 25th percentile/median/75th percentile, Table 4.5 median

## hydrocortisone [steroids]
rs7222094 CC subjects, p=0.02023, Pearson's Chi-square
  worse survival of steroid-treated than untreated subjects: 15%
steroid-treated subjects with rs7222094 CC
  28-day survival and organ dysfunction compared to controls (in words): lower 28-day survival and more organ dysfunction than controls; also recorded: decreases 28-day survival
steroid-treated subjects with rs7222094 TT
  28-day survival and organ function compared to controls (in words): increased survival and improved organ function; also recorded: improved compared with controls
steroid-treated, genotypes Combined (N = 355)
  SURV (28-Day Survival): 57% (203)
steroid-treated, rs7222094 CC (N = 122)
  SURV (28-Day Survival): 45% (55)
steroid-treated, rs7222094 CC (N = 122), Table 4.3 25th percentile/median/75th percentile, Table 4.5 median
  RENAL.DAF (Days alive and free of any type of renal dysfunction): 0 days
steroid-treated, rs7222094 TC (N = 159)
  SURV (28-Day Survival): 59% (94)
[1]
  DA (Days alive): 28 days
  INR.DAF (Days alive and free of international normalized ratio >1.5): 27 days
  LIVER.DAF (Days alive and free of any type of hepatic dysfunction): 28 days
rs7222094 CC
  Delta SURV (28-Day Survival): −15.0
  Delta COAG.DAF (Days alive and free of coagulation dysfunction): -11.5 days
  Delta CVS.DAF (Days alive and free of cardiovascular dysfunction): -1.0 days
  Delta DA (Days alive): -5.0 days
  Delta INR.DAF (Days alive and free of international normalized ratio >1.5): -6.0 days
  Delta LIVER.DAF (Days alive and free of any type of hepatic dysfunction): -6.5 days
  Delta PRESS.DAF (Days alive and free of any vasopressors): -11.0 days
  Delta RENAL.DAF (Days alive and free of any type of renal dysfunction): -4.0 days
  Delta RENSUP.DAF (Days alive and free of renal support): -9.0 days
  Delta RESP.DAF (Days alive and free of respiratory dysfunction): -12.0 days
  Delta VENT.DAF (Days alive and free of mechanical ventilators): -11.0 days
rs7222094 TC
  Delta SURV (28-Day Survival): −7.0
  Delta COAG.DAF (Days alive and free of coagulation dysfunction): -3.0 days
  Delta CVS.DAF (Days alive and free of cardiovascular dysfunction): -0.5 days
  Delta DA (Days alive): 0.0 days
  Delta INR.DAF (Days alive and free of international normalized ratio >1.5): -1.0 days
  Delta LIVER.DAF (Days alive and free of any type of hepatic dysfunction): 0.0 days
  Delta PRESS.DAF (Days alive and free of any vasopressors): -7.0 days
  Delta RENAL.DAF (Days alive and free of any type of renal dysfunction): -9.5 days
  Delta RENSUP.DAF (Days alive and free of renal support): -9.0 days
  Delta RESP.DAF (Days alive and free of respiratory dysfunction): -7.0 days
  Delta VENT.DAF (Days alive and free of mechanical ventilators): -11.0 days
rs7222094 TT
  Delta SURV (28-Day Survival): 3.0
  Delta COAG.DAF (Days alive and free of coagulation dysfunction): -0.5 days
  Delta CVS.DAF (Days alive and free of cardiovascular dysfunction): 1.0 days
  Delta DA (Days alive): 0.0 days
  Delta INR.DAF (Days alive and free of international normalized ratio >1.5): 0.0 days
  Delta LIVER.DAF (Days alive and free of any type of hepatic dysfunction): 0.0 days
  Delta PRESS.DAF (Days alive and free of any vasopressors): -2.0 days
  Delta RENAL.DAF (Days alive and free of any type of renal dysfunction): -5.5 days
  Delta RENSUP.DAF (Days alive and free of renal support): 0.0 days
  Delta RESP.DAF (Days alive and free of respiratory dysfunction): -2.0 days
  Delta VENT.DAF (Days alive and free of mechanical ventilators): -2.0 days
